# Source: patent publication US4132778A, “Antibiotic A-32887” (Eli Lilly and Company, priority 1977, dated 1979)
# Assays:
# Bacillus subtilis [1] = experiment: Conventional disc-diffusion method, Table VIII; type: cell-based; details: each as Na-K salts
# Protocol: (§1) The antimicrobial activity of two typical A-32887 acyl ester derivatives is compared with that of A-32887 (each as Na-K salts) in Table VIII. Activity against illustrative bacteria is measured by the conventional disc-diffusion method. In addition, the results of a conventional paper-disc agar-diffusion assay system (Plate Assay) against Bacillus subtilis ATCC 6633 are reported. […] The samples were assayed at 1 mg/ml.
# Micrococcus lutea = experiment: Conventional disc-diffusion method, Table VIII; type: cell-based; details: each as Na-K salts
# Protocol: as §1
# Staphylococcus aureus = experiment: Conventional disc-diffusion method, Table VIII; type: cell-based; details: each as Na-K salts
# Protocol: as §1
# Bacillus subtilis [2] = experiment: Conventional disc-diffusion method, minimal media, Table VIII; type: cell-based; details: each as Na-K salts
# [3] = system: type B influenza virus (Maryland, dog kidney); experiment: In vitro plaque suppression test; type: cell-based
# [4] = Ion binding / ion transport (ionophore)
# Excerpt: A-32887 can be used when the selective removal of particular cations is desired. Examples of such uses include the removal and recovery of silver ions from solutions in photography, the removal of toxic cations from industrial waste streams before such streams are discharged to the environment, and desalinization of sea water. A-32887 can be used as one component of an ion-specific electrode (O. Kedem, et al., U.S. Pat. No. 3,753,887, Aug. 21, 1973, Alkali metal specific measuring electrode). […] A-32887 can be used, therefore, as a component in a membrane used for the selective transport of cations against a concentration gradient. One potential application of this property is in recovery of heavy and precious metals on a commercial basis [see E. L. Cussler, D. F. Evans, and Sister M. A. Matesick, Science 172, 377 (1971)].
# [5] = system: Transmissible Gastroenteritis virus; experiment: In vitro plaque suppression test
# [6] = system: Infectious Canine Hepatitis virus; experiment: In vitro plaque suppression test
smiles,measurement,setting,value
CO[C@H]1CC[C@H](OC2[C@@H](C)[C@@](C)(O)O[C@H]([C@H]3CC[C@H]([C@@H]4CC[C@H]([C@@]5(C)O[C@]6(O[C@H](C[C@@H]7O[C@](O)([C@@H](O)C(=O)O)[C@@H](C)[C@H](OC)[C@@]7(C)OC)C[C@@H](OC)[C@H]6C)[C@H](C)[C@H]5OC)O4)O3)[C@H]2C)O[C@@H]1C.[K+].[Na+] (stereo partly drawn) [A-32887],"activity by disc-diffusion, Bacillus subtilis",Bacillus subtilis [1],18
same,"activity by disc-diffusion, Micrococcus lutea",Micrococcus lutea,16
same,"activity by disc-diffusion, Staphylococcus aureus",Staphylococcus aureus,16
same,"activity by disc-diffusion, Bacillus subtilis",Bacillus subtilis [2],30
same,antiviral activity,[3],active
same,cation permeability of natural and artificial membranes,[4],alters the cation permeability of both natural and artificial membranes
same,ion-binding and ion-transport properties,[4],exhibits ion-binding and ion-transport properties
same,antiviral activity,[5],active
same,antiviral activity,[6],active
